Like-named read-outs stand apart in the source and are kept apart here.
Experiments:
[1] = system: STZ-induced type I diabetes mellitus (T1DM) C57BL/6 mice; assay: Hypoglycemic effect, repeated administration (four times) to STZ-induced T1DM C57BL/6 mice (Example 5); assay type: in vivo; design: key to random blood glucose: random blood glucose in mmol/L, Mean±SEM; conditions: for random blood glucose: 1400 nmol/Kg S.C. four times
Procedure: SPF grade C57BL/6 mice were reared in a suitable rearing box in a barrier environment, with a rearing temperature of 20-26° C., a humidity of 40-70%, a time between day and night of 12 h/12 h, and the mice had free access to standard food and autoclaved sterilization water. After a 3-day quarantine period and a 2-day acclimation period, the mice were fasted for 12 h, and the mice were injected intraperitoneally with streptozotocin solution (STZ, 13 mg/mL, in citrate buffer) or citrate buffer at 130 mg/kg (control group). 3 Days and 7 days after administration of streptozotocin, random blood glucose and fasting blood glucose were detected, and the random blood glucose value above 25 mmol/L and fasting blood glucose value above 11.1 mmol/L were selected as T1DM model mice for follow-up experiments. On the day before administration, random blood glucose was monitored and mice were weighed. Mice were divided into 4 groups according to random blood glucose and body weight.
Subcutaneous administration (S.C.) was used to administer the corresponding vehicle or drug, once every 4-5 days, for a total of 4 administrations. During the experiment, the animals were allowed to eat and drink water freely. The random blood glucose before the first administration, and 0.25, 0.5, 1, 2, 4, 6, 8, 10, 24, 48, 72, and 96 h after administration were assessed, as well as the random blood glucose before the second, third and fourth administration, and 1, 2, 4, 6, 8, 24, 48, 72, 96 and 120 h after administration.
(§1) All raw data were entered into Excel files and expressed as Mean±SEM. Statistical analysis of data was performed using Graphpad Prism 7.0 software, one-way or two-way ANOVA comparison method, and P<0.05 was used as the criterion for significant differences.

insulin receptor B = molecular target: T1, insulin receptor B (Homo sapiens, UniProt P06213); assay: Insulin receptor B autophosphorylation in transfected cells (Cisbio Phospho-IR beta Tyr1150/1151 kit); assay type: cell-based; conditions: for Relative HI activity: relative to human insulin; for Relative 0% HSA activity: 1.5% HSA relative to 0% HSA
T1 construct: expressed in transfected cells
Procedure: The phosphorylation level of insulin receptor B was detected by Cisbio's Phospho-IR beta (Tyr1150/1151) kit method to evaluate the biological activity of insulin. The cells were seeded into a 96-well plate overnight, and after the serum in the medium was removed, 40 μl of serum-free medium was added to culture for about 4 h. Then a dilution series of insulin derivatives were prepared with blank solution (0.6% casein, 0.06 mg/mL EDTA, 1×DPBS) and incubated with cells in the 96-well plate for 5 min in a CO2 incubator (37° C., 5% CO2). The liquid in the 96-well plate was poured off, 100 µL of a mixture of lysis buffer (2% Triton X-100, 150 mM NaCl, 50 mM HEPES, pH=7) and inhibitor (Blocking Reagent in the kit) was added to lyse the cells, then the plate was shaken at 350 rpm for 30 min. Relative activity (in percent (%)) was assessed by measuring insulin receptor phosphorylation levels in the supernatant after cell lysis and fitting a curve to the data using nonlinear regression in Graphpad Prism 5 software. Related assays were also used, in which the blank solution also contained 1.5% HSA to simulate physiological conditions. Changes in the phosphorylation levels of the insulin-activated insulin receptors of the invention were detected as an indirect reflection of the albumin binding activity.

[2] = rat, in vivo, sc, 10 nmol/kg
[3] = rat, in vivo, iv, 10 nmol/kg
normal C57BL/6 mice = assay: Hypoglycemic effect, single subcutaneous administration to normal C57BL/6 mice; assay type: in vivo; design: blood glucose: unit not given here; conditions: for blood glucose / effective blood glucose control time / time after administration at which blood glucose reached the lowest level / time after administration at which blood glucose returned to normal: Degludec 200 nmol/Kg, others 1400 nmol/Kg; for blood glucose: Mean ± SEM, n = 6; for blood glucose compared with the control group: 1 h after single S.C. administration
Procedure: SPF grade C57BL/6 mice were reared in a suitable rearing box in a barrier environment, with a rearing temperature of 20-26° C., a humidity of 40-70%, a time between day and night of 12 h/12 h, and the mice had free access to standard food and autoclaved sterilization water. After a 3-day quarantine period and a 2-day acclimation period, random blood glucose was measured and mice were weighed. Mice were divided into 6 groups according to random blood glucose and body weight.
Single subcutaneous administration (S.C.) was used to administer the corresponding vehicle or drug. The control group was administered the vehicle PBS without fasting during the whole process, and the animals were allowed to eat and drink freely. Random blood glucose values of C57 mice were measured before administration and at 0.25, 0.5, 1, 2, 4, 6, 8, 10, 24, 48, 54, 72 and 96 hours after administration.
as §1

[4] = mouse, in vivo, sc, 10 nmol/kg
[5] = 0 h (before administration), single S.C.

T1 sequence (P06213 28-758 limits assumed): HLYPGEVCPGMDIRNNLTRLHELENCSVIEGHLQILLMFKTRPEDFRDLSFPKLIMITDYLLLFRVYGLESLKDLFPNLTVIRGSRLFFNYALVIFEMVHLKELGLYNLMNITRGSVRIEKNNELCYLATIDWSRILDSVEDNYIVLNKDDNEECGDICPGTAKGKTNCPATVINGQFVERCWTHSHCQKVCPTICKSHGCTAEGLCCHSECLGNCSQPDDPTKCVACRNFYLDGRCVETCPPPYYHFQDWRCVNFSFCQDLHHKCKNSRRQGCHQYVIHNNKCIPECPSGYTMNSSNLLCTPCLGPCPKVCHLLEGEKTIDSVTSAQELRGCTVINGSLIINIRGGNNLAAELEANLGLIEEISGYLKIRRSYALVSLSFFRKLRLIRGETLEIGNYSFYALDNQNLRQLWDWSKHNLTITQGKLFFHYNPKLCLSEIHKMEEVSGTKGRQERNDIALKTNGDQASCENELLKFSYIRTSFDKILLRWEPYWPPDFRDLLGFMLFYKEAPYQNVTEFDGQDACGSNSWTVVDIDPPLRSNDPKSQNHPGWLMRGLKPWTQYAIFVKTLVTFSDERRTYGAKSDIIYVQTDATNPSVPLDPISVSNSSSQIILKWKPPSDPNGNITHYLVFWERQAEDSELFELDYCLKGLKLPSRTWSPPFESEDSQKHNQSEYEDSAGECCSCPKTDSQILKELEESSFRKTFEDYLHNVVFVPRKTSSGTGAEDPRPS
T1 sequence (P06213 763-1382 partner limits assumed): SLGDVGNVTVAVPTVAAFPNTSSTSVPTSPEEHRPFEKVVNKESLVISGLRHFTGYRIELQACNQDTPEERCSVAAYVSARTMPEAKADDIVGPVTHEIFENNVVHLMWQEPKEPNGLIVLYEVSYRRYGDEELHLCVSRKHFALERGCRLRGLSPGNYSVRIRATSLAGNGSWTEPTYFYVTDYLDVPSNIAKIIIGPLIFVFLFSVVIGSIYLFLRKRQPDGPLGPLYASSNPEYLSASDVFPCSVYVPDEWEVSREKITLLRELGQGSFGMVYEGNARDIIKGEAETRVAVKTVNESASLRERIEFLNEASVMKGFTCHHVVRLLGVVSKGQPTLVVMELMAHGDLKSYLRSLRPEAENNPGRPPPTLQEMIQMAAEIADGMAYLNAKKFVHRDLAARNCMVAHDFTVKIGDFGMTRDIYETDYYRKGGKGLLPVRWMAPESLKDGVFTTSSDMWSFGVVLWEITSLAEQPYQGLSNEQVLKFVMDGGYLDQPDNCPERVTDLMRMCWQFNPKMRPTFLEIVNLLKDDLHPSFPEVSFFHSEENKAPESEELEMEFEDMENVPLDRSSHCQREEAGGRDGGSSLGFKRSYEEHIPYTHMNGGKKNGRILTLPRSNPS

Row | Substance | EC50 (insulin receptor B; 0% HSA) [µM] | Relative HI activity (insulin receptor B; 0% HSA) [%] | EC50 (insulin receptor B; 1.5% HSA) [µM] | blood glucose (normal C57BL/6 mice; [5]) | blood glucose (normal C57BL/6 mice; 0.25 h after single S.C.) | blood glucose (normal C57BL/6 mice; 0.5 h after single S.C.) | blood glucose compared with the control group (normal C57BL/6 mice) | blood glucose (normal C57BL/6 mice; 1 h after single S.C.) | blood glucose (normal C57BL/6 mice; 2 h after single S.C.) | blood glucose (normal C57BL/6 mice; 4 h after single S.C.) | blood glucose (normal C57BL/6 mice; 6 h after single S.C.) | blood glucose (normal C57BL/6 mice; 8 h after single S.C.) | blood glucose (normal C57BL/6 mice; 10 h after single S.C.) | blood glucose (normal C57BL/6 mice; 24 h after single S.C.) | blood glucose (normal C57BL/6 mice; 48 h after single S.C.) | blood glucose (normal C57BL/6 mice; 72 h after single S.C.) | blood glucose (normal C57BL/6 mice; 96 h after single S.C.) | effective blood glucose control time (normal C57BL/6 mice; single S.C.) [h] | time after administration at which blood glucose reached the lowest level (normal C57BL/6 mice; single S.C.) [h] | time after administration at which blood glucose returned to normal (normal C57BL/6 mice; single S.C.) [h] | also measured
1 | A14E, B16E, B25H, B29K (N^ε-eicosanedioyl-gGlu-2xOEG), DesB30 human insulin analog [Insulin-a1, reference compound] | 0.23 | 0.54 | 5.02 | 7.8 ± 1.1 | 8.8 ± 1.4 | 6.6 ± 0.7 | decreased significantly | 5.6 ± 0.7 | 4.4 ± 0.7 | 3.6 ± 0.7 | 3.8 ± 0.4 | 3.6 ± 0.7 | 3.4 ± 0.7 | 2.9 ± 0.7 | 4.9 ± 1.5 | 7.3 ± 1.3 | 7.8 ± 0.6 | 72 | 24 | 48 | time after administration at which blood glucose reached the lowest level ([1]; 1400 nmol/Kg S.C., Insulin-a1 each administration, Insulin-a3 first and second administrations): 24 h; time after administration at which blood glucose reached the normal level ([1]; 1400 nmol/Kg S.C., after each administration): 72 h; random blood glucose ([1]; Day 0 (1st administration)): 33.3 ± 0.1; random blood glucose ([1]; Day 1): 22.5 ± 9.6; random blood glucose ([1]; Day 4 (2nd administration)): 31.1 ± 2.3; random blood glucose ([1]; Day 5): 15.6 ± 6.6; random blood glucose ([1]; Day 9 (3rd administration)): 28.4 ± 4.9; random blood glucose ([1]; Day 10): 12.2 ± 7.9; random blood glucose ([1]; Day 14 (4th administration)): 28.4 ± 5.9; random blood glucose ([1]; Day 18): 26.2 ± 5.7; time the effective glucose control effect can be maintained ([1]; repeated administration, C57BL6 mice modeled by STZ): 3 days/time; Relative 0% HSA activity (insulin receptor B): 4.58%; Relative HI activity (insulin receptor B; 1.5% HSA): 0.05%; AUClast [2]: 10300 ng·h/mL; MRTINF_obs [2]: 34.1 h; T1/2 [2]: 21 h; AUClast [3]: 7550 ng·h/mL; T1/2 [3]: 15.3 ± 4.8 h; AUClast [4]: 10000 ng·h/mL; T1/2 [4]: 14.3 h
2 | A14E, B16E, B25H, B29K(N(ε)-COOH(CH2)16CO-L-Lys-CO(CH2)2CO—(OEG)2), desB30 human insulin analog [Insulin-a4] | – | – | – | 8.0 ± 1.3 | 9.0 ± 1.9 | 6.2 ± 1.6 | decreased significantly | 5.0 ± 0.5 | 4.8 ± 0.5 | 3.9 ± 0.5 | 3.8 ± 1.1 | 3.2 ± 0.6 | 3.0 ± 0.6 | 5.3 ± 1.8 | 8.7 ± 0.9 | 8.0 ± 0.9 | 7.9 ± 1.1 | 48 | 10 | 48 | –
3 | insulin degludec [reference compound] | 0.00455 | 27.07 | 0.0206 | 7.8 ± 0.8 | 6.5 ± 1.1 | 5.0 ± 0.4 | decreased significantly | 4.7 ± 1.1 | 4.4 ± 1.3 | 5.4 ± 0.6 | 5.4 ± 1.2 | 5.8 ± 0.8 | 5.7 ± 0.9 | 8.3 ± 0.9 | 8.0 ± 0.3 | 8.0 ± 0.8 | 7.9 ± 0.3 | 24 | 2 | 24 | Relative 0% HSA activity (insulin receptor B): 22.10%; Relative HI activity (insulin receptor B; 1.5% HSA): 12.59%

— patent US20240374692A1, “A NOVEL ACYLATED INSULIN ANALOG” (SUNSHINE LAKE PHARMA CO., LTD., priority 2021, published 2024)
